The IC50 is the concentration needed to halve the response being measured. A high value points to a need for much substance. One may read the Ki as a dissociation constant, usually derived from enzyme kinetics or from competition with a known ligand. Read a low Ki as a stronger hold on the target.

The structures appear in SMILES notation. A value given as a limit tells only on which side of the number the result lay.

The values that follow come from US20110105389A1 (priority 2009, published 2011).

T1 sequence (Q92847 whole entry): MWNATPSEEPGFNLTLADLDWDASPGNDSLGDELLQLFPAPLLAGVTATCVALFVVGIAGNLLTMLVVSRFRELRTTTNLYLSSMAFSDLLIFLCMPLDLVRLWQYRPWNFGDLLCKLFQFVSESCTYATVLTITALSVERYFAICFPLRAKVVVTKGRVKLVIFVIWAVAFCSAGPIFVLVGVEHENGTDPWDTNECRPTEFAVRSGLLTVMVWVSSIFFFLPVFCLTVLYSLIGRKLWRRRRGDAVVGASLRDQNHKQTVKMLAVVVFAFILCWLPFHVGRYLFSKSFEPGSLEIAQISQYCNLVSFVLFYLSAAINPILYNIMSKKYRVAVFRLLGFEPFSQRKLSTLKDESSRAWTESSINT

The first experiment has as its target T1, human ghrelin receptor (GRLN, growth hormone secretagogue receptor, hGHS-R1a) (Homo sapiens, UniProt Q92847).
T1 construct: purchased PerkinElmer BioSignal #RBHGHSM, lot#1887; host or cells: HEK-293 cells, stably transfected (membranes)
The experiment can be described thus: Competitive radioligand binding assay (ghrelin receptor), Method B1.
Settings: not given
As for the experimental part: Multiscreen Harvest plates-GF/C (Millipore, #MAHFC1H60) • 4. […] Bottom seal (Millipore, #MATAH0P00) • 7. […] Binding Buffer: 25 mM Hepes (pH 7.4), 1 mM CaCl2, 5 mM MgCl2. 2.5 mM EDTA, 0.4% BSA
Competition experiments were performed in a 300 μl filtration assay format. • 1. 220 μL of membranes diluted in binding buffer • 2. 40 μL of compound diluted in binding buffer • 3.
Compounds were provided frozen on dry ice at a stock concentration of 10 mM diluted in 100% DMSO and stored at −80° C. until the day of testing. On the test day, compounds were allowed to thaw at rt overnight and then diluted in assay buffer according to the desired test concentrations. Under these conditions, the maximal final DMSO concentration in the assay was 0.1%.
Plates were sealed with TopSeal-A, vortexed gently and incubated at rt for 30 min. The reaction was arrested by filtering samples through Multiscreen Harvest plates (pre-soaked in 0.5% polyethyleneimine) using a Tomtec Harvester, washed 9 times with 500 μL of cold 50 mM Tris-HCl (pH 7.4, 4° C.), and then plates were air-dried in a fumehood for 30 min. A bottom seal was applied to the plates prior to the addition of 25 μL of MicroScint-0 to each well. Plates were than sealed with TopSeal-A and counted for 30 sec per well on a TopCount Microplate Scintillation and Luminescence Counter (PerkinElmer) using a count delay of 60 sec. Results were expressed as counts per minute (cpm).
Data were analyzed by GraphPad Prism (GraphPad Software, San Diego, Calif.) using a variable slope non-linear regression analysis. […] Dmax values were calculated using the following formula: […]
As for `CCC(C)[C@@H]1NCCOc2ccccc2CC[C@@H](C)NC(=O)[C@@H](Cc2ccccc2)NC(=O)[C@H](C(C)O)N(C)C1=O` (stereo partly shown) [Compound 1342], the IC50 was 1 to 10 nM and the Ki was in the range of 1 to 10 nM. In turn, `CC[C@H](C)[C@@H]1NC/C=C/c2ccccc2CCCNC(=O)[C@@H](Cc2ccccc2)NC(=O)[C@H]([C@H](C)O)N(C)C1=O` [Compound 1346] showed an IC50 of over 500 nM and a Ki of 100 to 500 nM.

Still in this experiment, the particulars now being: Ghrelin receptor binding activity, Method B1.
Regarding `CCC(C)[C@@H]1NC[C@@H](C)Oc2ccccc2CCCNC(=O)[C@@H](Cc2ccccc2)NC(=O)[C@H](C(C)O)N(C)C1=O` (stereo partly shown) [Compound 1301], the Ki was 100 to 500 nM. Take `CC(O)[C@H]1C(=O)N[C@H](Cc2ccccc2)C(=O)NC/C=C/c2ccccc2OCCN[C@@H](CO)C(=O)N1C` (stereo partly shown) [Compound 1305]: the Ki was over 500 nM. `CCC(C)[C@@H]1NCCOc2cccnc2CCCNC(=O)[C@@H](Cc2ccccc2)NC(=O)[C@H](C(C)O)N(C)C1=O` (stereo partly shown) [Compound 1311]: the Ki was over 500 nM. `CCC(C)[C@@H]1NC[C@@H](C)Oc2ccccc2/C=C/CNC(=O)[C@@H](Cc2ccccc2)NC(=O)[C@H](C(C)O)N(C)C1=O` (stereo partly shown) [Compound 1313] displayed a half-inhibitory concentration (IC50) of 10 to 100 nM and a Ki of 10 to 100 nM. Turning to `CCC(C)[C@@H]1NC[C@H](C)Oc2ccccc2/C=C/CNC(=O)[C@@H](Cc2ccccc2)NC(=O)[C@H](C(C)O)N(C)C1=O` (stereo partly shown) [Compound 1314], the IC50 is 100 to 500 nM and the Ki was 100 to 500 nM. `CC(O)[C@H]1C(=O)N[C@H](Cc2ccccc2)C(=O)NC/C=C/c2ccccc2OCCN[C@@H](C2CCCC2)C(=O)N1C` (stereo partly shown) [Compound 1320] registered an IC50 of 10 to 100 nM and an inhibitory constant (Ki) of 10 to 100 nM. Molecule `CCC(C)[C@H]1C(=O)N(C)[C@@H](C(C)O)C(=O)N[C@H](Cc2ccccc2)C(=O)NC/C=C/c2ccccc2OCCN1C` (stereo partly shown) [Compound 1323] registered an inhibition constant (Ki) of 10 to 100 nM. `CCC(C)[C@@H]1NCCOc2ccccc2/C=C/CNC(=O)[C@@H](Cc2ccc(N)cc2)NC(=O)[C@H](C(C)O)N(C)C1=O` (stereo partly shown) [Compound 1328] had an IC50 of 100 to 500 nM and a Ki of 10 to 100 nM. The molecule `CCC(C)[C@@H]1NCCOc2ccccc2/C=C/CNC(=O)[C@@H](Cc2c[nH]cn2)NC(=O)[C@H](C(C)O)N(C)C1=O` (stereo partly shown) [Compound 1329] yielded an IC50 of 100 to 500 nM and a Ki of 10 to 100 nM. Molecule `CCC(C)[C@@H]1NCCOc2ccccc2/C=C/CNC(=O)[C@@H](Cc2ccncc2)NC(=O)[C@H](C(C)O)N(C)C1=O` (stereo partly shown) [Compound 1330] came in with an IC50 of 100 to 500 nM and a Ki of 10 to 100 nM.

For `CCC(C)[C@@H]1NCCOc2ccccc2/C=C/CNC(=O)[C@@H](Cc2ccco2)NC(=O)[C@H](C(C)O)N(C)C1=O` (stereo partly shown) [Compound 1331], the IC50 lay within 10 to 100 nM and the Ki lay within 10 to 100 nM. The molecule `CCC(C)[C@@H]1NCCOc2ccccc2C[C@@H](O)CNC(=O)[C@@H](Cc2ccccc2)NC(=O)[C@H](C(C)O)N(C)C1=O` (stereo partly shown) [Compound 1339] gave an IC50 of 100 to 500 nM and a Ki of 100 to 500 nM.

Turning to `CCC(C)[C@@H]1NCCOc2cc(F)ccc2CC[C@H](C)NC(=O)[C@@H](Cc2ccccc2)NC(=O)[C@H](C(C)O)N(C)C1=O` (stereo partly shown) [Compound 1344], the inhibition constant Ki fell in the range of 10 to 100 nM. With `CC(O)[C@H]1C(=O)N[C@H](Cc2ccccc2)C(=O)N[C@@H](C)CCc2ccccc2OCCN[C@@H](C2CC2)C(=O)N1C` (stereo partly shown) [Compound 1345], the IC50 fell in the range of 100 to 500 nM and the Ki was 10 to 100 nM.

`CCC(C)[C@@H]1N[C@H](C)COc2ccccc2CCCNC(=O)[C@@H](Cc2ccccc2)NC(=O)[C@H](C(C)O)N(C)C1=O` (stereo partly shown) [Compound 1347] came in with an IC50 of 100 to 500 nM and a Ki of 100 to 500 nM. The molecule `CCC(C)[C@@H]1N[C@@H](C)COc2ccccc2CCCNC(=O)[C@@H](Cc2ccccc2)NC(=O)[C@H](C(C)O)N(C)C1=O` (stereo partly shown) [Compound 1348] registered an IC50 of over 500 nM and an inhibitory constant (Ki) of 100 to 500 nM.

Molecule `CCC(C)[C@@H]1NCCOc2ccccc2CCC(C(F)(F)F)NC(=O)[C@@H](Cc2ccccc2)NC(=O)[C@H](C(C)O)N(C)C1=O` (stereo partly shown) [Compound 1349] gave a Ki of 10 to 100 nM. In the case of `CC(C)C1NCCOc2cc(F)ccc2C=CCNC(=O)C(C(C)c2ccccc2)NC(=O)C(C(C)O)N(C)C1=O` (stereo not shown) [Compound 1689], the IC50 is 10 to 100 nM.

`CCCC1CCc2ccccc2OCCNC(C(C)C)C(=O)N(C)C(C(C)O)C(=O)NC(Cc2ccccc2)C(=O)N1` (stereo not shown) [Compound 1694] registered an IC50 of over 500 nM. Molecule `CC(C)C1CCc2ccccc2OCCNC(C(C)C)C(=O)N(C)C(C(C)O)C(=O)NC(Cc2ccccc2)C(=O)N1` (stereo not shown) [Compound 1695] yielded a concentration for half-maximal inhibition (IC50) of 100 to 500 nM.

On to `CCCC1CCc2ccccc2OCCNC(C(C)C)C(=O)N(C)C(C(C)O)C(=O)NC(Cc2cccc(F)c2)C(=O)N1` (stereo not shown) [Compound 1696], for which the IC50 was over 500 nM. `CCCC1CCc2ccccc2OCCNC(C(C)C)C(=O)N(C)C(C(C)O)C(=O)NC(Cc2c[nH]c3ccccc23)C(=O)N1` (stereo not shown) [Compound 1697] yielded an IC50 of 100 to 500 nM. On the same count and under the same terms, to `CC(C)C1CCc2ccccc2OCCNC(C(C)C)C(=O)N(C)C(C(C)O)C(=O)NC(Cc2c[nH]c3ccccc23)C(=O)N1` (stereo not shown) [Compound 1698] belongs 10 to 100 nM; to `CCC1CCc2ccc(F)cc2OC(C)CNC(C2(C)CC2)C(=O)N(C)C(C(C)O)C(=O)NC(Cc2c[nH]c3ccccc23)C(=O)N1` (stereo not shown) [Compound 1706], 100 to 500 nM. Consider `CC(C)[C@@H]1NCCOc2ccccc2CC[C@H](C(C)C)NC(=O)[C@@H](Cc2cccc(F)c2)NC(=O)[C@H](C(C)O)N(C)C1=O` (stereo partly shown) [Compound 1708], for which the IC50 is 100 to 500 nM. `CC[C@@H]1C#Cc2ccc(Cl)cc2OCCN[C@@H](C(C)C)C(=O)N(C)[C@@H](C(C)O)C(=O)N[C@H](Cc2c[nH]c3ccccc23)C(=O)N1` (stereo partly shown) [Compound 1709] displayed an IC50 of 10 to 100 nM. Consider `CCC(C)[C@@H]1NCCO[C@H]2CCC[C@H]2CCCNC(=O)[C@@H](Cc2ccc(Cl)cc2)NC(=O)[C@H](C(C)O)N(C)C1=O` (stereo partly shown) [Compound 1714], for which the IC50 was in the range of 1 to 10 nM. `CCC(C)[C@@H]1NCCO[C@H]2CCCC[C@H]2CCCNC(=O)[C@@H](Cc2ccc(Cl)cc2)NC(=O)[C@H](C(C)O)N(C)C1=O` (stereo partly shown) [Compound 1715] yielded an IC50 of 1 to 10 nM. The same measure, in the same setting: for `CC[C@@H]1CCc2ccc(F)cc2O[C@H](C)CN[C@@H](C2(C)CC2)C(=O)N(C)[C@@H](C(C)O)C(=O)N[C@H](Cc2cccc(F)c2)C(=O)N1` (stereo partly shown) [Compound 1721] the value was 100 to 500 nM; for `CC[C@@H]1CCc2c(F)cccc2OCCN[C@@H](C(C)C)C(=O)N(C)[C@@H](C(C)O)C(=O)N[C@H](Cc2ccccc2)C(=O)N1` (stereo partly shown) [Compound 1722], 10 to 100 nM; for `CC[C@@H]1CCc2c(F)cccc2OCCN[C@@H](C(C)C)C(=O)N(C)[C@@H](C(C)O)C(=O)N[C@H](Cc2cccc(F)c2)C(=O)N1` (stereo partly shown) [Compound 1724], 10 to 100 nM. Same read-out and setting: for `CC[C@@H]1CCc2ccc(OC)cc2OCCN[C@@H](C(C)C)C(=O)N(C)[C@@H](C(C)O)C(=O)N[C@H](Cc2c[nH]c3ccccc23)C(=O)N1` (stereo partly shown) [Compound 1727] the value was over 500 nM; for `CC(O)[C@H]1C(=O)N[C@H](Cc2ccc(Cl)cc2)C(=O)NC/C=C/c2ccccc2OCCN[C@@H](C2CC2)C(=O)N1C` (stereo partly shown) [Compound 1728], 10 to 100 nM; for `CC(C)C[C@@H]1NCCOc2ccccc2/C=C/CNC(=O)[C@@H](Cc2ccc(Cl)cc2)NC(=O)[C@H](C(C)O)N(C)C1=O` (stereo partly shown) [Compound 1731], 100 to 500 nM. In the case of `CC(O)[C@H]1C(=O)N[C@H](Cc2ccc(Cl)cc2)C(=O)NC/C=C/c2ccccc2OCCN[C@@H](CC(C)(C)C)C(=O)N1C` (stereo partly shown) [Compound 1733], the half-maximal inhibitory concentration (IC50) lay in the range of 100 to 500 nM. On to `CCC(C)C1NCCOc2ccccc2C=CCNC(=O)C(Cc2ccc(OC)cc2)NC(=O)C(C(C)O)N(C)C1=O` (stereo not shown) [Compound 1735], for which the IC50 lay in the range of 10 to 100 nM. Molecule `CCC(C)C1NCCOc2ccccc2C=CCNC(=O)C(Cc2ccc(C)cc2)NC(=O)C(C(C)O)N(C)C1=O` (stereo not shown) [Compound 1736] yielded a half-maximal inhibitory concentration (IC50) of 10 to 100 nM. In turn, `CC(O)[C@H]1C(=O)N[C@H](Cc2ccc(Cl)cc2)C(=O)N[C@@H](C)CCc2ccccc2O[C@H](C)CN[C@@H](C2CC2)C(=O)N1C` (stereo partly shown) [Compound 1741] returned an IC50 of over 500 nM. As for `CC(O)[C@H]1C(=O)N[C@H](Cc2ccc(Cl)cc2)C(=O)N[C@H](C)CCc2ccccc2OCCN[C@@H](C2CCCCC2)C(=O)N1C` (stereo partly shown) [Compound 1744], the half-maximal inhibitory concentration (IC50) was over 500 nM.

`CC[C@@H]1CCc2ccccc2O[C@H](C)CN[C@@H](C2(C)CC2)C(=O)N(C)[C@@H](C(C)O)C(=O)N[C@H](Cc2c[nH]c3ccccc23)C(=O)N1` (stereo partly shown) [Compound 1756] displayed an IC50 of 10 to 100 nM. As to `CC[C@@H]1CCc2ccc(F)cc2OCCN[C@@H](CC(C)(C)C)C(=O)N(C)[C@@H](C(C)O)C(=O)N[C@H](Cc2c[nH]c3ccccc23)C(=O)N1` (stereo partly shown) [Compound 1764], the half-inhibitory concentration (IC50) was over 500 nM. The same measure, in the same setting: to `CC1CCc2ccccc2OCCNC(C(C)(C)C)C(=O)N(C)C(C(C)O)C(=O)NC(Cc2ccc(Cl)cc2)C(=O)N1` (stereo not shown) [Compound 1800] belongs 10 to 100 nM; to `CC(=O)OC(C)C1C(=O)NC(Cc2ccccc2)C(=O)NCC=Cc2ccccc2OCCNC(C(C)C)C(=O)N1C` (stereo not shown) [Compound 1841], over 500 nM.
